We go through 1 substance from patent publication US7220827B2, “Compound binding to leukocytes and medicinal composition containing the compound in labeled state as the active ingredient” (Nihon Medi-Physics Co., Ltd., priority 2002, dated 2007).

This assay has as its system human leukocytes (granulocytes; lymphocytes and monocytes). The assay can be described thus: Distribution of Tc-99m labeled peptides in human blood (Percoll density gradient). The class given is cell-based. The settings on record: incubation 30 minutes. An excerpt:
In order to confirm clinical effectiveness of the peptide of the present invention in human, binding affinities to leukocytes of two types of peptides of the present invention were examined by using human blood. The peptide 3 and the peptide 6 labeled with Tc-99m in Example 2 were separated into unlabeled peptides and labeled peptides, and purified by reversed phase HPLC under the same conditions as of HPLC in Example 2. […]
The conventionally known peptides, Tc-99m-peptide 11 and Tc-99m-peptide 12, were prepared. Each of the peptide 11 and the peptide 12 was dissolved in dimethylformamide to prepare a solution having the concentration of 0.1 mg/500 μl. A solution of SnCl2/10 mM hydrochloric acid (5 mg/10 ml) 50 μl was added to a tartaric acid/PBS solution (5 mg/200 μl), and the peptide solution was added thereto. Then ^99mTcO4^− solution (2738 MBq/ml) 0.25 μl was infused immediately thereafter and shaken for several seconds to perform labeling reaction at 120° C. for 10 minutes. Final concentration was about 855.6 MBq/125 mg/ml. Purification and measurement of radiochemical purity were performed by using preparative HPLC. Analysis was performed under the same conditions as in Example 2, i.e. gradient: 20%→50% (0.1% TFA acetonitrile/0.1% TFA water); 0→20 minutes. Radioactivity concentration after the purification was 287–311 MBq/ml.
Subsequently, a Percoll density gradient solution was prepared based on the method described in Example 3.
Blood, 20–30 ml, was collected from adult volunteers, 40 years old or less. The Tc-99m labeled peptides, 30 μl (111 MBq/ml, 1.8×10^−11 mol/ml as Tc-peptide) each, were added thereto and incubated for 30 minutes. The blood sample 2–3 ml was layered over carefully to the prepared Percoll density gradient solution. After centrifugation at 2000 rpm (800×g) for 15 minutes, the tube was frozen and each fraction was cut off by using a cutter, then the radioactivity of each fraction was measured using Auto-Well Gamma Counter to determine the radioactivity distribution of Tc-99m-labeled peptides in the blood components.

Turning to Tc-99m-glucoheptonic acid, the “radioactivity distributed in the plasma fraction” value is 95.39%; the “radioactivity distribution in the granulocyte fraction” value is given as 1.11 % of the radioactivity in the whole blood; the “radioactivity distribution in the lymphocyte and monocyte fraction” value was 2.52 % of the radioactivity in the whole blood.
